This is an account of results in article PMC4701715 (Current Therapeutic Research, Clinical and Experimental, 2015).

Each structure is given as a SMILES string.

What all share (assay type): cell-based
The target in test [1] is T1, rat GLP-1r (Rattus norvegicus, UniProt P32301).
T1 construct: expressed in transfected cells; host or cells: Chinese hamster lung cells
T1 sequence (P32301 22-463): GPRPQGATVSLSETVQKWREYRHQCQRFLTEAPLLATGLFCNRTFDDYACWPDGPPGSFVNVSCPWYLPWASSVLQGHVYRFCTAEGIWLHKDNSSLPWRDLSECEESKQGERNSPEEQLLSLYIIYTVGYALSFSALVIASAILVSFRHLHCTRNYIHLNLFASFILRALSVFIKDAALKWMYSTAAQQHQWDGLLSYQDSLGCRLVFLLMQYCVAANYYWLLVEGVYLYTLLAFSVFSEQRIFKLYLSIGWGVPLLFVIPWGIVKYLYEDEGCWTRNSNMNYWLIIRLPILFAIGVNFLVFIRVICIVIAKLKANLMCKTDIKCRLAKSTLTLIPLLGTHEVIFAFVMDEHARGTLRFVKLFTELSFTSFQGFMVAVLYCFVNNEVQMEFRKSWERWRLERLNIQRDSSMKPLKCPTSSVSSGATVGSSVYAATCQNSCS
Put plainly: cAMP accumulation in Chinese hamster lung cells overexpressing the rat GLP-1r. The conditions noted are these: Chinese hamster lung cells overexpressing rGLP-1r; 30 min incubation, room temperature, 1 mM IBMX; cAMP ELISA; mean, n = 3. The method, then:
(§1) All cell culture reagents were obtained from Invitrogen (Life Technologies Ltd, Paisley, United Kingdom) unless otherwise stated. Chinese hamster ovary-K1 cells overexpressing the rat GCGr were routinely maintained in Dulbecco’s modified eagle medium (DMEM) with 25 mM glucose and 1 mM sodium pyruvate supplemented with 10% fetal bovine serum, 25 mM hydroxyethyl piperazineethanesulfonic acid, 1% antibiotic (100 U/mL penicillin and 100 µg/mL streptomycin), and 1 × nonessential amino acids. Chinese hamster lung cells overexpressing the rat GLP-1r were maintained in the same DMEM but without additional hydroxyethyl piperazineethanesulfonic acid or nonessential amino acids.
(§2) Levels of cAMP accumulation was measured in Chinese hamster ovary-K1 cells overexpressing the rat GCGr (cDNA from Origene, Cambridge Bioscience, Cambridge, United Kingdom) or Chinese hamster lung cells overexpressing the rat GLP-1r (a gift from Bernard Thorens, University of Lausanne, Switzerland). […]
(§3) Data were plotted and in vivo efficacy values calculated.
(§4) cAMP in vitro efficacy and binding in vitro affinity were calculated using nonlinear regression with Prism version 5 software (GraphPad Software Inc, San Diego, California). Differences in cumulative food intake and body weight were analyzed using 1-way ANOVA and post hoc tests with Dunnett or Bonferroni correction (Prism version 5 software). […]
(Changes in cAMP serve as a functional read-out for many G protein-coupled receptors.)

The target in test [2] is T2, rat GCGr (Rattus norvegicus, UniProt P30082).
T2 construct: host or cells: Chinese hamster ovary-K1 cells
T2 sequence (P30082 27-485): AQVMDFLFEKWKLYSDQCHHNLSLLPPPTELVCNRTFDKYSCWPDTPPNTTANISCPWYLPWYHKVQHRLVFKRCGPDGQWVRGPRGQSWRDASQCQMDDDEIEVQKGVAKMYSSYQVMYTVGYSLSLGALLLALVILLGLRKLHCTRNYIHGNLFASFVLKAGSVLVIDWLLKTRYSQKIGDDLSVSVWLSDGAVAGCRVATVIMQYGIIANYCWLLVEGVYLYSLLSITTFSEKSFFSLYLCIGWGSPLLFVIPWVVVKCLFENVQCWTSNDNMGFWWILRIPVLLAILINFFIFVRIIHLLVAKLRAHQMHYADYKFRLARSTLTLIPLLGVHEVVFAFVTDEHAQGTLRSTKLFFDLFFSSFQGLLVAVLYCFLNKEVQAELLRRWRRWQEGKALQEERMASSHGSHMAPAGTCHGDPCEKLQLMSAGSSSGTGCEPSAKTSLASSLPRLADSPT
Put plainly: cAMP accumulation in CHO-K1 cells overexpressing the rat GCGr. The conditions noted are these: CHO cells overexpressing rGCGr; 30 min incubation, room temperature, 1 mM IBMX; cAMP ELISA; mean, n = 3. How it is done:
as §1, §2, §3, §4

In test [3] the target is T2, rat GCGr. Briefly: Rat GCGr antagonism study: cAMP in the presence of 0.1 nM glucagon. The conditions noted are these: n = 3. The method, then: Postincubation, medium was removed and cells lysed with 120 µL/well of 0.1 M hydrochloride + 0.5% nonionic, octylphenol ethoxylate surfactant. cAMP levels were measured using an indirect ELISA according to the manufacturer’s instructions (ADI-900-066, Enzo Life Sciences, United Kingdom), optical density was read at 405 nm on a Biotek ELx808 (Wolf Laboratories, York, United Kingdom). Data were plotted and […] efficacy values calculated.

`CC[C@H](C)[C@H](NC(=O)[C@H](CC(N)=O)NC(=O)[C@H](CC(N)=O)NC(=O)[C@H](CCCNC(=N)N)NC(=O)[C@H](CC(N)=O)NC(=O)[C@H](CCCNC(=N)N)NC(=O)[C@H](CCCCN)NC(=O)[C@@H](NC(=O)[C@H](CC(N)=O)NC(=O)[C@H](CCSC)NC(=O)[C@H](CC(C)C)NC(=O)[C@H](Cc1c[nH]c2ccccc12)NC(=O)[C@H](CCC(N)=O)NC(=O)[C@@H](NC(=O)[C@H](Cc1ccccc1)NC(=O)[C@H](CC(=O)O)NC(=O)[C@H](CCC(N)=O)NC(=O)[C@H](C)NC(=O)[C@H](CCCNC(=N)N)NC(=O)[C@H](CCCNC(=N)N)NC(=O)[C@H](CO)NC(=O)[C@H](CC(=O)O)NC(=O)[C@H](CC(C)C)NC(=O)[C@H](Cc1ccc(O)cc1)NC(=O)[C@H](CCCCN)NC(=O)[C@H](CO)NC(=O)[C@H](Cc1ccc(O)cc1)NC(=O)[C@H](CC(=O)O)NC(=O)[C@H](CO)NC(=O)[C@@H](NC(=O)[C@H](Cc1ccccc1)NC(=O)[C@@H](NC(=O)CNC(=O)[C@H](CCC(=O)O)NC(=O)[C@H](CO)NC(=O)[C@@H](N)Cc1c[nH]cn1)[C@@H](C)O)[C@@H](C)O)C(C)C)[C@@H](C)O)C(=O)N[C@@H](C)C(=O)O` [OXME3]: the figures for the half-maximal effective concentration (EC50) in test [1] and in test [2] were 8.1 nM and 160 nM, respectively. Moreover, in test [3] (30 nM peptide with 0.1 nM glucagon), the “increase of cAMP levels compared with glucagon stimulation alone” value is 9%. In addition, in test [3] (all concentrations tested except 30 nM, with 0.1 nM glucagon, relative to glucagon alone), the “decrease of glucagon-mediated cAMP accumulation, mean” value is 40.3%.
